# According to patent US5639881A, “Synthesis and elucidation of pyrimido (4,5-Q) quinazoline derivatives” (priority 1991, dated 1997):
# Where two headings read alike, the source gives them in different places.
# Tests used:
# [1] = reduced capability to cycle between reduced and oxidized forms; cited from earlier work
# physchem = format: physicochemical
# Excerpt: (§1) The mechanism of 38 and 39 formation from 28 is discussed in conjunction with Scheme VI. The pH-rate data in FIG. 1 indicate that rate-determining chloride elimination occurs from the neutral, monoanion, dianion, and trianion forms of 28. Plateaus corresponding to the first three eliminations are indicated on FIG. 1. The increasing rates above pH 11 may pertain to equilibrium trianion formation and rate-determining elimination of chloride from the trianion. Consideration of rate-determining chloride elimination from the various forms of 28 provides the rate law shown in equation 1 [formula] where the rate and equilibrium constants are those shown in Scheme VI. The numerical values for these constants (shown in Scheme VI) were obtained by computer-fitting the data in FIG. 1 to equation 1. The solid line in FIG. 1 was then generated from equation 1 substituted with these constants. The independently determined pKa for monoanion formation (8.26±0.15) is in agreement with the kinetic pKa value (8.3). Thus, the kinetically-determined pKa values in Scheme VI represent actual acid dissociations rather than mixtures of constants. [drawing 5]
# (§2) In aerobic aqueous buffer, both 43 and 44 are converted to the corresponding quinones {Scheme IX) by first-order processes. […] The solid curve of Plot A was generated from the rate law, kobsd =k1 +k2 Ka1 /(aH +Ka1), where k1 is the rate of oxidation of the neutral species (1×10^-3 sec^-1), k2 is the rate of oxidation of the hydroquinone monoanion (0.046 sec^-1), pKa1 is the acid dissociation constant (7.78), and aH is the proton activity determined with a pH meter. The acid dissociation constant obtained from the pH-rate data is nearly the same as the value determined previously, 8.26±0.15.1
# colon and breast cancers = details: for IC50: Homo sapiens; for antitumor activity: colon and breast cancers
# [2] = lipophilicity (statement)
# [3] = quinone methide trapping with added 2-mercaptoethanol; format: physicochemical; details: 10 to 100X excess of mercaptoethanol
# Excerpt: Chloride elimination from the neutral and anionic forms of 28 affords an equilibrating mixture of protonated (36), neutral (37), and anionic (37^-) quinone methides. Proton trapping by 37^-, in competition with water trapping of 36 and 37, then affords a mixture of 38 and 39. Evidence of steady-state intermediates capable of trapping nucleophiles (36 and 37) was obtained by adding 10 to 100X excess of Z-mercaptoethanol over 28. […] The presence mercaptoethanol results in formation of a hydroquinone (nucleophile-trapped) product 40 and no quinone 39, however. Thus, quinone methide formation must occur in a rate determining step, followed by its relatively rapid trapping by the mercaptide nuceophile. The mercaptoethanol trapping studies of benzimidazole (See: Skibo, E. B., J. Org. Chem. 1986, 51, 522) and quinazoline (See: Lemus et al., op. cit.) based quinone methides likewise provided evidence of a steady-state species.
# [4] = format: physicochemical
# Excerpt: The hydrolysis of 28 was followed spectrophotometrically at 430 nm in anaerobic aqueous buffer over a pH range of 6 to 12 with [28]=5×10^-5 M. Absorbance vs. time plots for hydrolysis are first order in character, with the first-order rate constants (kobsd)independent of buffer concentration but dependent on pH as shown in FIG. 1. The use of known hydroquinone and quinone extinction coefficients at 430 nm permitted the calculation of product yields: 69±1% 38 and 31±1% 39 regardless of the pH (product structures shown in Scheme VI). The accuracy of the yield determinations was enhanced by the intense hydroquinone visible spectrum and the absence of visible absorbances for the quinone derivative. Product isolation studies confirmed the presence of 39.
# as §1
# The hydrolysis of 35 in anaerobic buffer proceeds by a first-order process to afford 42 as the sole product. […] The pH-rate profile, obtained over the pH range of 5 to 8, is a straight line of slope +1. […] Computer fitting the pH-rate data to kobsd =k1 Ka1 /aH, and substituting pKa1 =10.3, provides and elimination rate constant of k1 =24 sec^-1.
# (§3) Kinetic Studies of Hydrolysis and Oxidation. The hydrolytic studies of 28 and 35 were carried out in anaerobic aqueous buffer, and the reoxidation studies of 43 and 44 were carried out in aerobic aqueous buffer at 30.0°±0.2° C. The anaerobic experiments were carried out with Thunberg cuvettes as previously described. A dimethyl sulfoxide stock of the compound to be studied was prepared fresh, and 50 μL of this stock was added to 2.95 mL of buffer. The absorbance vs time data were obtained on a PERKIN-ELMER 559 or a Lambda-3 UV-vis spectrophotometer and fit to a first-order rate law.
# [5] = value determined previously; cited from earlier work
# [6] = format: physicochemical; remark: listed apart in the source
# Protocol: Oxygen Reactivity. In order to assess the capability of the title systems to generate reactive oxygen species by quinone/hydroquinone cycling, the rate laws were determined for oxygen oxidation of 43 and 44, Scheme IX. These respective hydroquinones are analogues of 28 and 35 without leaving groups present. As expected, the internal hydrogen bonds of 43 slow oxidation at high pH while the absence of hydrogen bonds in 44 result in stopped flow oxidations under these conditions. However, the crossing of the pH-rate profiles near neutrality (FIG. 3) results in similar rates of oxidation for both systems at physiological pH.
# as §2, §3
# [7] = read-out: IC50 values as low as
# [8] = regardless of pH (pH 6 to 12), 5×10^-5 M, 430 nm
# [9] = aerobic aqueous buffer, 30.0 °C
structure (smiles),measurement,setting,value
COc1cccc2c1C(=N)c1c(O)c3c(c(O)c1C2=O)C[C@@](O)(C(C)=O)C[C@@H]3O[C@H]1C[C@H](N)[C@H](O)[C@H](C)O1 [5-iminodaunorubicin],cardiotoxicity,[1],does reduce cardiotoxicity
"COc1c2nc(CCl)n(C)c(=O)c2c(OC)c2nc(CCl)n(C)c(=O)c12 [compound 16, 2,7-Bis(chloromethyl)-5,10-dimethoxy-3,8-dimethylpyrimido [4,5-g]quinazoline-4,9(3H,8H)-dione]",ionization at physiological pH,physchem,will not ionize at physiological pH
same,IC50,colon and breast cancers; [7],≥ 20 nM
"COc1c2nc(CBr)n(C)c(=O)c2c(OC)c2nc(CBr)n(C)c(=O)c12 [compound 17, 2,7-Bis (bromomethyl)-5,10-dimethoxy-3,8-dimethylpyrimido[4,5-g]quinazoline-4,9(3H,8H)-dione]",ionization at physiological pH,physchem,will not ionize at physiological pH
same,IC50,colon and breast cancers; [7],≥ 20 nM
same,lipophilicity,[2],lipophilic
"O=C1c2nc(CBr)[nH]c(=O)c2C(=O)c2nc(CBr)[nH]c(=O)c21 [compound 19, 2,7-Bis(bromomethyl)pyrimido[4,5-g]quinazoline-4,5,9,10(3H,8H)-tetrone]",pKa,"physchem; anion formation near neutrality, read-out: pKa (conversion to an anion)",6.5
same,IC50,colon and breast cancers,> 1000 nM
same,antitumor activity,colon and breast cancers,poor activity
"Cn1c(CCl)nc2c(c1=O)C(=O)c1nc(CCl)n(C)c(=O)c1C2=O [compound 22, 2,7-Bis(chloromethyl)-3,8-dimethylpyrimido[4,5-g]quinazoline-4,5,9,10(3H8H)-tetrone]",antitumor activity,colon and breast cancers,inactive
"Cc1nc2c(O)c3c(=O)[nH]c(CCl)nc3c(O)c2c(=O)[nH]1 [compound 28, 2-(Chloromethyl)-5,10-dihydroxy-7-methylpryimido[4,5-g]quinazoline-4,9(3H,8H)-dione]",pKa,"physchem; aqueous buffer, from computer-fit of pH-rate profile of hydrolysis, read-out: kinetic pKa value",8.3
same,observed rate constants in presence of 2-mercaptoethanol vs hydrolysis without it,[3],essentially the same
same,yield of hydrolysis product 38,[4]; [8],69±1%
same,yield of hydrolysis product 39,[4]; [8],31±1%
"Cc1nc2c(O)c3c(=O)n(C)c(CCl)nc3c(O)c2c(=O)n1C [compound 35, 2-(Chloromethyl)-5,10-dihydroxy-3,7,8-trimethylpyrimido[4,5-g]quinazoline-4,9(3H,8H)-dione]",stability in protic solvent,[4]; any protic solvent,rapidly eliminates HCl
same,"k1, rate constant for elimination of chloride from the monoanion","[4]; monoanion, anaerobic aqueous buffer, 30.0 °C",24 s⁻¹
same,rates of hydrolysis,[4]; much above pH 8,stopped-flow rates
Cc1nc2c(O)c3c(=O)[nH]c(C)nc3c(O)c2c(=O)[nH]1 [compound 43],pKa,"physchem; aerobic aqueous buffer, from pH-rate profile of oxidation, read-out: pKa1 (hydroquinone acid dissociation constant from pH-rate data)",7.78
same,acid dissociation constant (pKa) determined previously,[5],8.26±0.15
same,stability toward oxygen relative to reduced anthracyclines,[6],more stable toward oxygen than reduced anthracyclines
same,rate of oxidation of the hydroquinone monoanion,[6]; [9],0.046 s⁻¹
same,fold slower oxidation of 43^- than 44^-,[6]; monoanions,128 fold
same,"k1, rate of oxidation of the neutral species","[6]; neutral hydroquinone, aerobic aqueous buffer, 30.0 °C",0.001 s⁻¹
same,rate of oxidation at physiological pH,[6],1.7×10^-2 sec^-1
Cc1nc2c(O)c3c(=O)n(C)c(C)nc3c(O)c2c(=O)n1C [compound 44],stability toward oxygen relative to reduced anthracyclines,[6],more stable toward oxygen than reduced anthracyclines
same,rates of oxidation,[6]; at or above pH 9,stopped flow rates
same,rate of oxidation of the hydroquinone monoanion,[6]; [9],5.8 s⁻¹
same,rate of oxidation at physiological pH,[6],9×10^-3 sec^-1
